These compounds were tested against T1, CCR-3 (Homo sapiens, UniProt P51677) (assay: Eotaxin-induced chemotaxis of CCR-3 transfectant cells (CCR3/U937)). Details: 10 µM test compound; eotaxin 1 x 10^-9 M; CCR3/U937 cells (Table 3a).
T1 sequence (P51677 1-355): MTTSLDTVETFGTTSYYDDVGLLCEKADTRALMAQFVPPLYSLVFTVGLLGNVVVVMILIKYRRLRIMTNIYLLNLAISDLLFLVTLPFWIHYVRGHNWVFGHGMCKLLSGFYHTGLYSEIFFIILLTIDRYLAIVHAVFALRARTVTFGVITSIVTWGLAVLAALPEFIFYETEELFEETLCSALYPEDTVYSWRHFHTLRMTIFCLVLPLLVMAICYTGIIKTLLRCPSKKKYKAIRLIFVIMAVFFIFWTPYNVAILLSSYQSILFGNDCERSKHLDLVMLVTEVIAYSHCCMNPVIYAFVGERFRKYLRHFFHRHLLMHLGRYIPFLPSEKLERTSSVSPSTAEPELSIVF
Type: cell-based
Design: expressed in transfected cells; host or cells: U937
Experimental: The inhibitory activity of the compounds against eotaxin-induced chemotaxis was determined by measuring the inhibition of migration of CCR-3 transfectant cells (CCR3/U937), using a minor modification of the method described by Ohashi, H. et al., Int Arch Allergy Immunol. […] The chemotaxis assay was performed in a 24-well culture plate. Human eotaxin suspended in assay medium was added to the wells at 1 x 10^-9 M along with test compounds at various concentrations. For a positive control, eotaxin was added to the wells without a test compound, and for a negative control, neither eotaxin nor a test compound was added to the wells. Chemotaxicell (Kurabo Co., Ltd.) having 5 micrometers pore size were inserted into each well and 100 micro liters of CCR-3 transfectant cells suspension were added to the top chamber. The plates were incubated at 37 °C for 1 hour. After incubation, migrated cells in lower wells were diluted and counted by particle size distribution analyzer (CDP-500, Sysmex Co., Ltd.).
For CCN(CCCCNC(=O)Nc1ccc([N+](=O)[O-])cc1)CCc1ccc(Cl)cc1 [Compound 5], the “Chemotaxis Assay 10 µM (inhibition %)” value was 99%.
With CCN(CCCCNC(=O)Nc1ccccc1)CCc1ccc(Cl)cc1 [Compound 7] the “Chemotaxis Assay 10 µM (inhibition %)” value was 99%.
CCN(CCCCCNC(=O)Nc1ccccc1)CCc1ccc(Cl)cc1 [Compound 8] was tested, and the “Chemotaxis Assay 10 µM (inhibition %)” value was 94%.
CCN(CCCNC(=O)Nc1ccccc1)CCc1ccccc1 [Compound 11] was tested, and the “Chemotaxis Assay 10 µM (inhibition %)” value was 86%.
CCCCN(CCCNC(=O)Nc1ccccc1)CCc1ccc(Cl)cc1 [Compound 14] was tested, and the “Chemotaxis Assay 10 µM (inhibition %)” value was 97%.
N#Cc1ccc(CN(CCCNC(=O)Nc2ccccc2)CCc2ccc(Cl)cc2)cc1 [Compound 16] was tested, and the “Chemotaxis Assay 10 µM (inhibition %)” value was 63%.
For O=C(NCCCN(CCc1ccc(Cl)cc1)Cc1ccncc1)Nc1ccccc1 [Compound 24], the “Chemotaxis Assay 10 µM (inhibition %)” value was 100%.
In the case of O=C(NCCCN(CCc1ccc(Cl)cc1)Cc1ccccc1)Nc1ccccc1 [Compound 28], the “Chemotaxis Assay 10 µM (inhibition %)” value is reported as 76%.
COC(=O)CCCN(CCCNC(=O)Nc1ccc(Br)cc1)C1CCCc2ccccc21 (centres unmarked) [Compound 29, methyl 4-[[3-(4-bromophenylureido)propyl](1,2,3,4-tetrahydro-1-naphthyl)amino]butylate] was tested, and the “Chemotaxis Assay 10 µM (inhibition %)” value was 100%.
In the case of COC(=O)CCCN(CCCNC(=O)Nc1ccc(Br)cc1)[C@H](C)c1ccccc1 [Compound 30, Methyl 4-[[3-(4-bromophenylureido)propyl][(1R)-1-phenylethyl]-amino]butylate], the “Chemotaxis Assay 10 µM (inhibition %)” value is reported as 100%.
In the case of COC(=O)CCCN(CCCNC(=O)Nc1ccc(Br)cc1)CCc1ccc(Cl)cc1 [Compound 31, Methyl 4-[[3-(4-bromophenylureido)pcopyl][2-(4-chlorophenyl)-ethyl]amino]butylate], the “Chemotaxis Assay 10 µM (inhibition %)” value is reported as “. 97%”.
With COC(=O)CCCN(CCCCNC(=O)Nc1ccc(Br)cc1)C1CCCc2ccccc21 (centres unmarked) [Compound 32, Methyl 4-[[4-(4-bromophenylureido)butyl](1,2,3,4-tetrahydro-1-naphthyl)amino]butylate] the “Chemotaxis Assay 10 µM (inhibition %)” value was 99%.
With COC(=O)CCCN(CCCCCNC(=O)Nc1ccc(Br)cc1)C1CCCc2ccccc21 (centres unmarked) [Compound 33, Methyl 4-[[5-(4-bromophenylureido)penryl](1,2.3,4-tetrahvdro-1-naphthyl)amino]burylate] the “Chemotaxis Assay 10 µM (inhibition %)” value was 95%.
In the case of COC(=O)CCCN(CCCNC(=O)Nc1ccc(C)cc1)C1CCCc2ccccc21 (centres unmarked) [Compound 34, Methyl 4-[[3-(4-methylphenylureido)propyl](1,2,3,4-tetrahydro-1-naphthyl)amino]butylate], the “Chemotaxis Assay 10 µM (inhibition %)” value is reported as 96%.
In the case of COC(=O)CCCN(CCCNC(=O)Nc1ccc(Cl)c(Cl)c1)C1CCCc2ccccc21 (centres unmarked) [Compound 35, Methyl 4-[[3-(3,4-dichlorophenylureido)propyl](1,2,3,4-tetrahydro-1-naphthyl)amino]burylate], the “Chemotaxis Assay 10 µM (inhibition %)” value is reported as 100%.
In the case of COC(=O)CCCN(CCCNC(=O)Nc1ccc(Br)cc1)Cc1ccccc1 [Compound 37], the “Chemotaxis Assay 10 µM (inhibition %)” value is reported as 100%.
For COC(=O)CCCN(CCCNC(=O)Nc1ccc(Br)cc1)Cc1ccc2c(c1)OCO2 [Compound 40], the “Chemotaxis Assay 10 µM (inhibition %)” value was 88%.
For COC(=O)CCCN(CCCNC(=O)Nc1ccc(Br)cc1)CCc1ccccc1 [Compound 42], the “Chemotaxis Assay 10 µM (inhibition %)” value was 96%.
COC(=O)CCCN(CCCNC(=O)Nc1ccc(Br)cc1)C(Cc1ccccc1)c1ccccc1 (centres unmarked) [Compound 45] was tested, and the “Chemotaxis Assay 10 µM (inhibition %)” value was 62%.
With COC(=O)CCCN(CCCNC(=O)Nc1ccc(Br)cc1)Cc1ccncc1 [Compound 48] the “Chemotaxis Assay 10 µM (inhibition %)” value was 34%.
For COC(=O)CCCN(CCCNC(=O)Nc1ccccc1)CCc1ccc(Cl)cc1 [Compound 49], the “Chemotaxis Assay 10 µM (inhibition %)” value was 100%.
In the case of COC(=O)CCCN(CCCNC(=O)Nc1cccc(Cl)c1)C1CCCc2ccccc21 (centres unmarked) [Compound 51], the “Chemotaxis Assay 10 µM (inhibition %)” value is reported as 100%.
For COC(=O)CCCN(CCCNC(=O)Nc1cccc(C)c1)C1CCCc2ccccc21 (centres unmarked) [Compound 52], the “Chemotaxis Assay 10 µM (inhibition %)” value was 100%.
In the case of COC(=O)CCCN(CCCNC(=O)Nc1ccc(Cl)c(C(F)(F)F)c1)C1CCCc2ccccc21 (centres unmarked) [Compound 53], the “Chemotaxis Assay 10 µM (inhibition %)” value is reported as 93%.
For COC(=O)CCCN(CCCNC(=O)Nc1ccccc1-c1ccccc1)C1CCCc2ccccc21 (centres unmarked) [Compound 54], the “Chemotaxis Assay 10 µM (inhibition %)” value was 19%.
For COC(=O)CCCN(CCCNC(=O)Nc1ccc(OC)cc1OC)C1CCCc2ccccc21 (centres unmarked) [Compound 55], the “Chemotaxis Assay 10 µM (inhibition %)” value was 38%.
With COC(=O)CCCN(CCCNC(=O)Nc1ccccc1)C1CCCc2ccccc21 (centres unmarked) [Compound 56] the “Chemotaxis Assay 10 µM (inhibition %)” value was 100%.
With COC(=O)CCCN(CCCNC(=O)Nc1ccc(OC)cc1)C1CCCc2ccccc21 (centres unmarked) [Compound 57] the “Chemotaxis Assay 10 µM (inhibition %)” value was 100%.
In the case of COC(=O)CCCN(CCCNC(=O)Nc1ccc(Oc2ccccc2)cc1)C1CCCc2ccccc21 (centres unmarked) [Compound 58], the “Chemotaxis Assay 10 µM (inhibition %)” value is reported as 100. %.
COC(=O)CCCN(CCCNC(=O)Nc1cccc2ccccc12)C1CCCc2ccccc21 (centres unmarked) [Compound 59] was tested, and the “Chemotaxis Assay 10 µM (inhibition %)” value was 87%.
For O=C(O)CCCN(CCCNC(=O)Nc1ccc(Br)cc1)Cc1ccco1 [Compound 68], the “Chemotaxis Assay 10 µM (inhibition %)” value was 31%.
In the case of O=C(O)CCCN(CCCNC(=O)Nc1ccc(Br)cc1)Cc1cccs1 [Compound 69], the “Chemotaxis Assay 10 µM (inhibition %)” value is reported as 81%.
For O=C(O)CCCN(CCCNC(=O)Nc1ccc(Br)cc1)Cc1ccc2c(c1)OCO2 [Compound 70], the “Chemotaxis Assay 10 µM (inhibition %)” value was 89%.
With O=C(O)CCCN(CCCNC(=O)Nc1ccc(Br)cc1)Cc1ccc(C(F)(F)F)cc1 [Compound 71] the “Chemotaxis Assay 10 µM (inhibition %)” value was 64%.
For O=C(O)CCCN(CCCNC(=O)Nc1ccc(Br)cc1)CCc1ccccc1 [Compound 72], the “Chemotaxis Assay 10 µM (inhibition %)” value was 68%.
For COc1ccc(CCN(CCCNC(=O)Nc2ccc(Br)cc2)CCCC(=O)O)cc1OC [Compound 73], the “Chemotaxis Assay 10 µM (inhibition %)” value was 44%.
In the case of O=C(O)CCCN(CCCNC(=O)Nc1ccc(Br)cc1)CCc1c[nH]c2ccccc12 [Compound 74], the “Chemotaxis Assay 10 µM (inhibition %)” value is reported as 50%.
For O=C(O)CCCN(CCCNC(=O)Nc1ccc(Br)cc1)C(Cc1ccccc1)c1ccccc1 (centres unmarked) [Compound 75], the “Chemotaxis Assay 10 µM (inhibition %)” value was 68%.

Same assay, conditions: U-937; 10 µM test compound; eotaxin 1 x 10^-9 M; CCR3/U937 cells (Table 3a)
For CCN(CCCNC(=O)Nc1ccc([N+](=O)[O-])cc1)CCc1ccc(Cl)cc1 [Compound 2, N-(4-Nitrophenylcarbamoyl)-N'-[2-(4-chlorophenyl)ethyl]-N'-ethyl-1,3-diaminopropane], the inhibition at 10 µM was 100%.
In the case of CCN(CCCNC(=O)Nc1ccc(Cl)cc1)CCc1ccc(Cl)cc1 [Compound 6], the inhibition at 10 µM is reported as 100%.
In the case of CCN(CCCNC(=O)Nc1ccccc1OC)CCc1ccc(Cl)cc1 [Compound 9], the inhibition at 10 µM is reported as 100%.
CCCN(CCCNC(=O)Nc1ccccc1)CCc1ccc(Cl)cc1 [Compound 10, N-Phenylcarbamoyl-N'-[2-(4-chlorophenyl)ethyl]-N'-propyl-1,3-diaminopropane] was tested, and the inhibition at 10 µM was 99%.
With O=C(NCCCN(CCc1ccc(Cl)cc1)Cc1ccc(Cl)cc1)Nc1ccccc1 [Compound 17] the inhibition at 10 µM was 51%.
With COc1ccc(CN(CCCNC(=O)Nc2ccccc2)CCc2ccc(Cl)cc2)cc1 [Compound 18] the inhibition at 10 µM was 58%.
CC(C)(C)c1ccc(CN(CCCNC(=O)Nc2ccccc2)CCc2ccc(Cl)cc2)cc1 [Compound 19] showed an inhibition at 10 µM of 47%.
O=C(NCCCN(CCc1ccc(Cl)cc1)Cc1cnc2ccccc2c1)Nc1ccccc1 [Compound 20] showed an inhibition at 10 µM of 26%.
Cc1ccc(CN(CCCNC(=O)Nc2ccccc2)CCc2ccc(Cl)cc2)cc1 [Compound 21] gave an inhibition at 10 µM of 40%.
CCOC(=O)c1ccc(CN(CCCNC(=O)Nc2ccccc2)CCc2ccc(Cl)cc2)o1 [Compound 22] gave an inhibition at 10 µM of 25%.
O=C(NCCCN(CCc1ccc(Cl)cc1)Cc1cccnc1)Nc1ccccc1 [Compound 23] showed an inhibition at 10 µM of 82%.
In the case of O=C(NCCCN(CCc1ccccc1)CCc1ccc(Cl)cc1)Nc1ccccc1 [Compound 25], the inhibition at 10 µM is reported as 88%.
Work on CN(CCCNC(=O)Nc1ccccc1)CCc1ccc(Cl)cc1 [Compound 27] yielded an inhibition at 10 µM of 97%.
COC(=O)CCCN(CCCNC(=O)Nc1ccc(Br)cc1)Cc1cccs1 [Compound 39] showed an inhibition at 10 µM of 78%.
COC(=O)CCCN(CCCNC(=O)Nc1ccc(Br)cc1)CCc1ccc(OC)c(OC)c1 [Compound 43] gave an inhibition at 10 µM of 50%.
For O=C(O)CCCN(CCCCNC(=O)Nc1ccc(Br)cc1)C1CCCc2ccccc21 (centres unmarked) [Compound 62, 4-[[4-(4-Bromophenylureido)butyl](1,2,3,4-tetrahydro-1-naphthyl)-amino]butanoic acid], the inhibition at 10 µM was 98%.
Compound O=C(O)CCCN(CCCCCNC(=O)Nc1ccc(Br)cc1)C1CCCc2ccccc21 (centres unmarked) [Compound 63, 4-[[5-(4-Bromophenylureido)pentyl](1,2,3,4-tetrahydro-1-naphthyl)-amino]butanoic acid] has an inhibition at 10 µM of 100%.
Cc1ccc(NC(=O)NCCCN(CCCC(=O)O)C2CCCc3ccccc32)cc1 (centres unmarked) [Compound 64, 4-[[3-(4-Methylphenylureido)propyl](1,2,3,4-tetrahydro-1-naphthyl)-amino]butanoic acid] gave an inhibition at 10 µM of 100%.

— EP1200395B1, “UREA DERIVATIVES AS INHIBITORS OF CCR-3 RECEPTOR” (KIRIN BEER KABUSHIKI KAISHA, priority 1999, dated 2001)
